This passage reports GI50 and TGI results from PubChem BioAssay (NCI).

Test systems include 786-0 renal; CAKI-1 renal; DU-145 prostate; HCC-2998 colon; HOP-92 NSCLC; HS 578T breast; MOLT-4 leukemia; PC-3 prostate; SK-MEL-2 melanoma; SK-OV-3 ovarian.
Common to all, as to assay: NCI-60 cell line screen, 48 h

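Compound exposure: 48 hours, 5 concentrations, 96-well plates. GI50: concentration for 50% inhibition of growth. TGI: concentration producing complete growth inhibition.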

On to `CCCC[C@@H](COC(=O)N(Cc1cccs1)Cc1cccs1)NC(=O)N[C@@H](CC(=O)OC)c1ccc2c(c1)OCO2`, for which the GI50 in the assay with 786-0 renal, in the assay with CAKI-1 renal, with DU-145 prostate, in the assay on HCC-2998 colon, in the assay with HOP-92 NSCLC and in the assay on HS 578T breast was greater than 100 µM each time. The GI50 in the assay on MOLT-4 leukemia is 5.19 µM; with PC-3 prostate it was 9.09 µM; with SK-MEL-2 melanoma, greater than 100 µM; in the assay with SK-OV-3 ovarian it was greater than 100 µM. The TGI in the assay on 786-0 renal, in the assay with CAKI-1 renal, with DU-145 prostate, with HCC-2998 colon, in the assay with HOP-92 NSCLC and in the assay with HS 578T breast was greater than 100 µM each time. Moreover, the TGI in the assay on MOLT-4 leukemia, with PC-3 prostate, in the assay with SK-MEL-2 melanoma and in the assay with SK-OV-3 ovarian was greater than 100 µM throughout.

`CC/C=C\CCC/C=C1/C(=O)C=C[C@@H]1C/C=C\CCCC(=O)O`: the GI50 was 4.37 µM with 786-0 renal; 3.43 µM with CAKI-1 renal; 11.3 µM in the assay with DU-145 prostate; 1.8 µM with HCC-2998 colon; 13.2 µM in the assay with HOP-92 NSCLC; 13.7 µM in the assay on HS 578T breast. The GI50 is 2.44 µM in the assay on MOLT-4 leukemia, 3.64 µM in the assay with PC-3 prostate, 4.82 µM in the assay with SK-MEL-2 melanoma and 14.4 µM in the assay with SK-OV-3 ovarian. For the same compound, the TGI with 786-0 renal turned out to be 15.1 µM; in the assay with CAKI-1 renal it was 11.9 µM; with DU-145 prostate, 23.8 µM; in the assay on HCC-2998 colon, 3.39 µM; with HOP-92 NSCLC, 27 µM; in the assay with HS 578T breast, 59.3 µM. For the same compound, the TGI in the assay on MOLT-4 leukemia is 8.93 µM; in the assay with PC-3 prostate it was 9.82 µM; with SK-MEL-2 melanoma it was 18.3 µM; in the assay on SK-OV-3 ovarian, 31.3 µM.

As to `COc1ccc(/C=C2\COc3ccc(-c4ccccc4)cc3C2=O)cc1O`, the GI50 was 5.02 µM with 786-0 renal; 4.61 µM in the assay with CAKI-1 renal; 2.49 µM in the assay with DU-145 prostate; 3.31 µM in the assay with HCC-2998 colon; 2.55 µM in the assay on HOP-92 NSCLC; 2.72 µM in the assay on HS 578T breast. The GI50 was 2.34 µM in the assay with MOLT-4 leukemia, 3.41 µM in the assay with PC-3 prostate, 2.17 µM in the assay with SK-MEL-2 melanoma and 4.16 µM in the assay on SK-OV-3 ovarian. Besides, the TGI in the assay on 786-0 renal was determined as 15.7 µM; in the assay with CAKI-1 renal it was 32.9 µM; with DU-145 prostate, 9.69 µM; in the assay on HCC-2998 colon, 10.3 µM; in the assay on HOP-92 NSCLC, 18.9 µM; in the assay on HS 578T breast, 7.56 µM. The TGI is 83.6 µM with MOLT-4 leukemia, greater than 100 µM in the assay with PC-3 prostate, 6.1 µM in the assay on SK-MEL-2 melanoma and 22.3 µM in the assay with SK-OV-3 ovarian.

On to `COc1cc(C2C(C#N)=C(N)OC3=C2C(=O)c2ccccc2C3=O)cc(OC)c1OC` (stereo not given), for which the GI50 in the assay on 786-0 renal was 5.8 µM; in the assay with CAKI-1 renal, 0.736 µM; in the assay on DU-145 prostate it was 0.474 µM; with HCC-2998 colon, 2.52 µM; in the assay with HOP-92 NSCLC it was 0.861 µM; with HS 578T breast, 0.382 µM. In addition, the GI50 is 4.06 µM in the assay with MOLT-4 leukemia, 0.577 µM in the assay on PC-3 prostate, 0.998 µM in the assay on SK-MEL-2 melanoma and 4.88 µM with SK-OV-3 ovarian. Also, the TGI was greater than 100 µM in the assay on 786-0 renal; 20.6 µM with CAKI-1 renal; 15.9 µM with DU-145 prostate; 18.7 µM with HCC-2998 colon; 24.9 µM in the assay with HOP-92 NSCLC; 49.3 µM in the assay with HS 578T breast. Further, the TGI in the assay on MOLT-4 leukemia is 24.4 µM; in the assay on PC-3 prostate it was greater than 100 µM; with SK-MEL-2 melanoma, 19.2 µM; in the assay with SK-OV-3 ovarian it was greater than 100 µM.

`O=C(NNS(=O)(=O)c1cc(C(F)(F)F)cc(C(F)(F)F)c1)c1cnn(-c2ccc(Cl)cc2)c1C(F)(F)F`: the GI50 in the assay with 786-0 renal is 18.1 µM; in the assay with CAKI-1 renal, 26.2 µM; in the assay on DU-145 prostate, 18.6 µM; in the assay on HCC-2998 colon, 16.4 µM; in the assay on HOP-92 NSCLC it was 14.8 µM; in the assay with HS 578T breast, 18.4 µM. The GI50 was 19.9 µM in the assay on MOLT-4 leukemia, 16.4 µM in the assay on PC-3 prostate, 18.5 µM with SK-MEL-2 melanoma and 22.9 µM with SK-OV-3 ovarian. For the same compound, the TGI is 42.2 µM in the assay with 786-0 renal; 57.2 µM in the assay on CAKI-1 renal; 44.1 µM in the assay with DU-145 prostate; 31 µM in the assay with HCC-2998 colon; 31.8 µM with HOP-92 NSCLC; 44.6 µM in the assay with HS 578T breast. For the same compound, the TGI in the assay with MOLT-4 leukemia amounted to 52.3 µM; in the assay on PC-3 prostate, 32.8 µM; in the assay on SK-MEL-2 melanoma it was 34.7 µM; with SK-OV-3 ovarian, 61.7 µM.

For the compound `Oc1ccccc1-n1c(-c2ccccc2)ccc1-c1ccccc1`, the GI50 is 13.2 µM in the assay with 786-0 renal; 3.85 µM in the assay on CAKI-1 renal; 7 µM in the assay with DU-145 prostate; 11.2 µM with HCC-2998 colon; 1.94 µM in the assay on HOP-92 NSCLC; 14 µM with HS 578T breast. Also, the GI50 with MOLT-4 leukemia is 3.81 µM; with PC-3 prostate, 2.95 µM; with SK-MEL-2 melanoma it was 4.63 µM; in the assay on SK-OV-3 ovarian it was 8.93 µM. The TGI in the assay with 786-0 renal was 26.5 µM; in the assay with CAKI-1 renal it was 18.1 µM; in the assay on DU-145 prostate it was 19.7 µM; in the assay on HCC-2998 colon, 29.2 µM; in the assay on HOP-92 NSCLC it was 8.54 µM; in the assay with HS 578T breast, greater than 100 µM. In addition, the TGI with MOLT-4 leukemia was 16.8 µM; in the assay with PC-3 prostate, 15.8 µM; in the assay on SK-MEL-2 melanoma, 19.4 µM; with SK-OV-3 ovarian it was greater than 100 µM.

Take `C[Se]C(=O)CC1=C2C=C(F)C=CC2/C(=C\c2ccc(S(C)=O)cc2)C1C` (stereo not given): the GI50 with 786-0 renal is 0.207 µM; in the assay on CAKI-1 renal, 0.0253 µM; in the assay on DU-145 prostate it was 0.0187 µM; with HCC-2998 colon it was 1.63 µM; with HOP-92 NSCLC, 0.165 µM; with HS 578T breast, 0.0886 µM. Moreover, the GI50 is 0.392 µM in the assay with MOLT-4 leukemia, 0.174 µM in the assay with PC-3 prostate, 0.432 µM with SK-MEL-2 melanoma and 0.0493 µM in the assay with SK-OV-3 ovarian. Besides, the TGI in the assay on 786-0 renal was found to be 1.71 µM; with CAKI-1 renal, 0.478 µM; with DU-145 prostate, 1.16 µM; with HCC-2998 colon, 6.79 µM; in the assay with HOP-92 NSCLC, 0.417 µM; in the assay on HS 578T breast it was 2.36 µM. Besides, the TGI in the assay with MOLT-4 leukemia is greater than 100 µM; with PC-3 prostate it was 1.95 µM; with SK-MEL-2 melanoma it was 3.04 µM; in the assay on SK-OV-3 ovarian, 1.58 µM.

`NC(CSC(c1ccccc1)(c1ccccc1)c1ccc2ccccc2c1)C(=O)O` (stereo not given): the GI50 with 786-0 renal is 0.0763 µM; with CAKI-1 renal, 0.0998 µM; in the assay on DU-145 prostate, 0.0986 µM; with HCC-2998 colon, 0.0374 µM; with HOP-92 NSCLC, 0.215 µM; in the assay on HS 578T breast, 0.0267 µM. The GI50 is 0.29 µM in the assay on MOLT-4 leukemia, 0.0628 µM in the assay with PC-3 prostate, 1.29 µM with SK-MEL-2 melanoma and 0.0806 µM in the assay with SK-OV-3 ovarian. In addition, the TGI in the assay with 786-0 renal is 1.19 µM; in the assay on CAKI-1 renal, 34.6 µM; in the assay with DU-145 prostate, 0.333 µM; in the assay with HCC-2998 colon, 0.496 µM; with HOP-92 NSCLC, 23.2 µM; in the assay on HS 578T breast, 0.0832 µM. Further, the TGI in the assay on MOLT-4 leukemia is greater than 33.8 µM; in the assay with PC-3 prostate it was greater than 82.7 µM; in the assay on SK-MEL-2 melanoma, 30 µM; in the assay on SK-OV-3 ovarian, 29.6 µM.

For `N#Cc1nc(-c2ccccc2)oc1S(=O)(=O)N1CCOCC1`, the GI50 is 16 µM in the assay with 786-0 renal; 1.61 µM in the assay with CAKI-1 renal; 6.08 µM in the assay on DU-145 prostate; 17.3 µM in the assay on HCC-2998 colon; 1.6 µM with HOP-92 NSCLC; 16.3 µM in the assay with HS 578T breast. In addition, the GI50 in the assay on MOLT-4 leukemia was 2.01 µM; in the assay with PC-3 prostate it was 5.79 µM; in the assay on SK-MEL-2 melanoma, 12.7 µM; with SK-OV-3 ovarian it was 56.2 µM. In addition, the TGI in the assay with 786-0 renal was 32 µM; in the assay on CAKI-1 renal, 3.04 µM; with DU-145 prostate it was 19.1 µM; with HCC-2998 colon it was 33.7 µM; in the assay with HOP-92 NSCLC it was 3.15 µM; with HS 578T breast, 50 µM. Further, the TGI was 5.08 µM in the assay on MOLT-4 leukemia, 20.8 µM in the assay on PC-3 prostate, 29.8 µM with SK-MEL-2 melanoma and greater than 100 µM with SK-OV-3 ovarian.

Regarding `C#Cc1ccc(NC(=O)c2ccc(/C=C/C(=O)c3nccn3C)cc2)cc1`, the GI50 in the assay with 786-0 renal is 0.454 µM; in the assay with CAKI-1 renal, 0.51 µM; in the assay with DU-145 prostate, 0.597 µM; in the assay with HCC-2998 colon it was 0.434 µM; with HOP-92 NSCLC, 0.53 µM; in the assay with HS 578T breast, 0.853 µM. Besides, the GI50 in the assay with MOLT-4 leukemia was 0.582 µM; in the assay with PC-3 prostate, 0.476 µM; with SK-MEL-2 melanoma, 1.63 µM; with SK-OV-3 ovarian, 0.979 µM. Moreover, the TGI was 0.892 µM in the assay with 786-0 renal; 1.34 µM in the assay on CAKI-1 renal; 1.57 µM with DU-145 prostate; 0.804 µM in the assay on HCC-2998 colon; 2.23 µM in the assay with HOP-92 NSCLC; 11.9 µM with HS 578T breast. Moreover, the TGI is 1.54 µM in the assay with MOLT-4 leukemia, 1.53 µM with PC-3 prostate, 6.68 µM with SK-MEL-2 melanoma and 24.3 µM in the assay with SK-OV-3 ovarian.

As for `C=C(C)[C@H]1CC/C(C)=C/CCC(C)C(=O)CC/C(CO)=C\[C@@H]1O` (stereo not given in full), the GI50 in the assay with 786-0 renal was greater than 100 µM; with CAKI-1 renal, 65.9 µM; in the assay with DU-145 prostate it was 60.8 µM; in the assay on HCC-2998 colon, greater than 100 µM; with HOP-92 NSCLC, 61.5 µM; in the assay with HS 578T breast it was 41.9 µM. The GI50 was 56.6 µM with MOLT-4 leukemia, 76.3 µM in the assay with PC-3 prostate, greater than 100 µM in the assay with SK-MEL-2 melanoma and greater than 100 µM with SK-OV-3 ovarian. The TGI with 786-0 renal, in the assay with CAKI-1 renal, with DU-145 prostate, in the assay with HCC-2998 colon, in the assay with HOP-92 NSCLC and in the assay with HS 578T breast was greater than 100 µM each time. The TGI with MOLT-4 leukemia, in the assay with PC-3 prostate, in the assay on SK-MEL-2 melanoma and in the assay with SK-OV-3 ovarian was greater than 100 µM throughout.

`Cn1c(O)c(C(=O)Nc2ccc([N+](=O)[O-])cc2)c(=O)n(C)c1=S`: the TGI in the assay on 786-0 renal came out at 8.81 µM; in the assay with CAKI-1 renal it was 10.6 µM; in the assay with DU-145 prostate, 11.5 µM; with HCC-2998 colon, 7.23 µM; in the assay on HOP-92 NSCLC it was 4.7 µM; with HS 578T breast, 5.85 µM. Moreover, the TGI is greater than 100 µM in the assay on MOLT-4 leukemia, 5.34 µM in the assay with PC-3 prostate, 5.53 µM with SK-MEL-2 melanoma and greater than 81.1 µM in the assay on SK-OV-3 ovarian.
